For one molecule, Tmax results are on record in article PMC13231921 (Antimicrobial Agents and Chemotherapy, 2026).

The nature of the data set: Pharmacokinetics of GST-HG171 and ritonavir in plasma, alone and co-administered with itraconazole (drug-drug interaction study). To be noted: Day 3, N = 12, median (minimum, maximum).

With `CC(C)c1nc(CN(C)C(=O)N[C@H](C(=O)N[C@@H](Cc2ccccc2)C[C@H](O)[C@H](Cc2ccccc2)NC(=O)OCc2cncs2)C(C)C)cs1` [Ritonavir, ritonavir], the Tmax is 2.50 (2.0008, 3.0011) h.
